Columns and labels:
[1] = molecular target: PAS domain-containing serine/threonine-protein kinase (Homo sapiens) (UniProt Q96RG2); assay: Residual activity of PASK at 1 uM by microplate scintillation counting
[2] = molecular target: T1, Activin receptor type-1 (Homo sapiens) (UniProt Q04771); assay: Residual activity of ACV-R1 at 1 uM by microplate scintillation counting
T1 sequence (whole entry): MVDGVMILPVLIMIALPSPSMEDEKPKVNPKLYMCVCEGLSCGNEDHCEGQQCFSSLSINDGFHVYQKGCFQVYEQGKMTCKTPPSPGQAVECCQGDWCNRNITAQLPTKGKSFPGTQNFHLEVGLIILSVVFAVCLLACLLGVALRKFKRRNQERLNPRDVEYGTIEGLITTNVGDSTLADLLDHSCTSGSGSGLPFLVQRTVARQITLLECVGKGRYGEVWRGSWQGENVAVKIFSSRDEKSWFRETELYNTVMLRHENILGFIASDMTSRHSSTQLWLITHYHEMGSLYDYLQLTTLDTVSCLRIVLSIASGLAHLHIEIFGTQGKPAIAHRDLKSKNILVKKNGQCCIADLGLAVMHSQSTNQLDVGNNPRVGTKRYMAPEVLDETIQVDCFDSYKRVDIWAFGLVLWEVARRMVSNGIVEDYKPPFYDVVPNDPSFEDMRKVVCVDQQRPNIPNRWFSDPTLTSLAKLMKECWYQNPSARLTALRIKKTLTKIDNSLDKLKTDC

[3] = molecular target: Mitogen-activated protein kinase 11 (Homo sapiens) (UniProt Q15759); assay: Residual activity of p38beta at 0.1 uM by microplate scintillation counting
[4] = molecular target: T2, Ephrin type-A receptor 1 (Homo sapiens) (UniProt P21709); assay: Residual activity of EPHA1 at 10 uM by microplate scintillation counting
T2 sequence (whole entry): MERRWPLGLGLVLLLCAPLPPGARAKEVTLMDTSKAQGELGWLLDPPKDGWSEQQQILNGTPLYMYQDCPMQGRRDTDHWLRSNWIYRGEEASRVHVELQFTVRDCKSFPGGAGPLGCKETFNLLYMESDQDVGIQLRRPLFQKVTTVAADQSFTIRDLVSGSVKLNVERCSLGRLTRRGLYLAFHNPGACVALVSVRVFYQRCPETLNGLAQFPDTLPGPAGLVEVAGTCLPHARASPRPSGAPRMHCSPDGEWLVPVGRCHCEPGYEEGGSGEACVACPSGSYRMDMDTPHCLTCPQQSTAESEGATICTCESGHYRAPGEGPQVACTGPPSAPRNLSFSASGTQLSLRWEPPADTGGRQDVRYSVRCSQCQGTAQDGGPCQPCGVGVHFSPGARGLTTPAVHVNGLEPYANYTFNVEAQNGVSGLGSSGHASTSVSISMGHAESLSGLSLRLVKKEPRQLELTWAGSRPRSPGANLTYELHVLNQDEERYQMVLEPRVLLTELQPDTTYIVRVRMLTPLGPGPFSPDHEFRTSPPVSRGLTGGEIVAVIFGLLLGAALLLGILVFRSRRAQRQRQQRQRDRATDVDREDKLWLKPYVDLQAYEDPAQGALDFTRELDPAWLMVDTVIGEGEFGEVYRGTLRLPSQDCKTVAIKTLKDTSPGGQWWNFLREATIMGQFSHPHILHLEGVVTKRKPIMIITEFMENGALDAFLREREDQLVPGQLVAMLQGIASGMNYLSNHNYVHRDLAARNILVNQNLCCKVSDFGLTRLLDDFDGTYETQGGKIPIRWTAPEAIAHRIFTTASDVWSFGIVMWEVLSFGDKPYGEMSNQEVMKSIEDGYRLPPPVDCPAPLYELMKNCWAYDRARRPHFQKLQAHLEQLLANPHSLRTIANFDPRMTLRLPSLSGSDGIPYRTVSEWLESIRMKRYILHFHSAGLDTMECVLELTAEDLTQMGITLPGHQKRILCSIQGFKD

[5] = molecular target: Receptor-interacting serine/threonine-protein kinase 2 (Homo sapiens) (UniProt O43353); assay: Residual activity of RIPK2 at 10 uM by microplate scintillation counting
[6] = molecular target: Serine/threonine-protein kinase 24 (Homo sapiens) (UniProt Q9Y6E0); assay: Residual activity of MST3 at 0.1 uM by microplate scintillation counting
[7] = molecular target: Tyrosine-protein kinase Fyn (Homo sapiens) (UniProt P06241); assay: Residual activity of FYN at 10 uM by microplate scintillation counting
[8] = molecular target: CDK9/cyclin T1 (Homo sapiens) (UniProt O60563+P50750); assay: Residual activity of CDK9/Cyclin T at 0.1 uM by microplate scintillation counting; type: protein-complex assay
[9] = molecular target: Protein kinase C beta type (Homo sapiens) (UniProt P05771); assay: Residual activity of PKCbeta2 at 1 uM by microplate scintillation counting
[10] = molecular target: Platelet-derived growth factor receptor alpha (Homo sapiens) (UniProt P16234); assay: Residual activity of PDGFRalpha at 1 uM by microplate scintillation counting
[11] = molecular target: T3, Serine/threonine-protein kinase Sgk2 (Homo sapiens) (UniProt Q9HBY8); assay: Residual activity of SGK2 at 10 uM by microplate scintillation counting
T3 sequence (whole entry): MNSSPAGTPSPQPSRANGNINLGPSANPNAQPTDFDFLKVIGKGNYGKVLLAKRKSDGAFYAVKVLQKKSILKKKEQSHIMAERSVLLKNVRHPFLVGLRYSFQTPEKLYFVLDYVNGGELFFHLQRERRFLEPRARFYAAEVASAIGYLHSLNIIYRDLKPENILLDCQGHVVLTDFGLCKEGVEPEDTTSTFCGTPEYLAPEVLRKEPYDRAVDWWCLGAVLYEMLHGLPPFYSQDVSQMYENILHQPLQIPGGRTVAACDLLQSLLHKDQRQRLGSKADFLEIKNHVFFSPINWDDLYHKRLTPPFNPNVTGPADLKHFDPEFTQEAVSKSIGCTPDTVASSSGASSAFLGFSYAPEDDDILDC

Platelet-derived growth factor receptor alpha (Homo sapiens), sequence (P16234 whole entry): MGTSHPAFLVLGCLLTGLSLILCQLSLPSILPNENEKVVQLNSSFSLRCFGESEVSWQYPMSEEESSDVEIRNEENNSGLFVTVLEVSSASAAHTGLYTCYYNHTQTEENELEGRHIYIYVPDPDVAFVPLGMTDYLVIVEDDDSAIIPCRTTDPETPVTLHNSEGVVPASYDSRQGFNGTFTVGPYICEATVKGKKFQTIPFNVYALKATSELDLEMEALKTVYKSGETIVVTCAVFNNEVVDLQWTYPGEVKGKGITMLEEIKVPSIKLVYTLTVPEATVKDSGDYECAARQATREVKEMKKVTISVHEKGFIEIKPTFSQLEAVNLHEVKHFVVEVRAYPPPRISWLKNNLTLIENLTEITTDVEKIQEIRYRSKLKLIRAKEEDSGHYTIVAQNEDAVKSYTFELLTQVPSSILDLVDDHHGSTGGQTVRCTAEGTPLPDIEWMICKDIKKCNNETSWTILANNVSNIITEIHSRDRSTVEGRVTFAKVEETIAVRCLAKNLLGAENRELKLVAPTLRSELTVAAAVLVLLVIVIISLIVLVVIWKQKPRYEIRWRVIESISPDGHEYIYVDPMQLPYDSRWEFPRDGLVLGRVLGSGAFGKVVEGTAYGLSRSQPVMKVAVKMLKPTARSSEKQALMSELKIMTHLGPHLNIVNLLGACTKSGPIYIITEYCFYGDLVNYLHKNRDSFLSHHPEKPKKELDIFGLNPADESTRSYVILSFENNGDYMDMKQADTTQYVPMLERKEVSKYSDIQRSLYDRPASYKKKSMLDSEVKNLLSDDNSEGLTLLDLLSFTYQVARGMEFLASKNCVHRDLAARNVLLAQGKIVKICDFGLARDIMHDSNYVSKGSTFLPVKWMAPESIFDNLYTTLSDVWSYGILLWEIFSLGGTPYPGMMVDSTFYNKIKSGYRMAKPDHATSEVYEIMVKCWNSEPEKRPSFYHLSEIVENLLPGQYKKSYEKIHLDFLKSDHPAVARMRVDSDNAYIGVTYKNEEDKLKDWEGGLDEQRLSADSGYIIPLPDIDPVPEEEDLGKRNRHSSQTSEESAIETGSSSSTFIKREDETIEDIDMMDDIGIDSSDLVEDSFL
Receptor-interacting serine/threonine-protein kinase 2 (Homo sapiens), sequence (O43353 whole entry): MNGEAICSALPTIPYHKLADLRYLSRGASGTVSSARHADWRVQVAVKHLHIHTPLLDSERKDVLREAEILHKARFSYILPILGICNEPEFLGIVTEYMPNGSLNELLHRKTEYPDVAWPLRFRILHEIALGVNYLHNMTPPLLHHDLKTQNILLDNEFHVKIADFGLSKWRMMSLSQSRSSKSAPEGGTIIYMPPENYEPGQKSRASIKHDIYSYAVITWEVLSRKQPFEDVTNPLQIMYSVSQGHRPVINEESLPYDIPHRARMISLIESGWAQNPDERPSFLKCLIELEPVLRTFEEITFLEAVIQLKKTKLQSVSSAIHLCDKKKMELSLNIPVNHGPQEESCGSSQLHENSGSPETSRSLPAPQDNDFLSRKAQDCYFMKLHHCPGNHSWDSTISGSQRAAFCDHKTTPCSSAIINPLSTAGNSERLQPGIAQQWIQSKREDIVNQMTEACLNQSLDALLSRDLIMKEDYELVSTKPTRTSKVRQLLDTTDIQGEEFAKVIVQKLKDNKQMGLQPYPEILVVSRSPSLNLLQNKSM
Mitogen-activated protein kinase 11 (Homo sapiens), sequence (Q15759 whole entry): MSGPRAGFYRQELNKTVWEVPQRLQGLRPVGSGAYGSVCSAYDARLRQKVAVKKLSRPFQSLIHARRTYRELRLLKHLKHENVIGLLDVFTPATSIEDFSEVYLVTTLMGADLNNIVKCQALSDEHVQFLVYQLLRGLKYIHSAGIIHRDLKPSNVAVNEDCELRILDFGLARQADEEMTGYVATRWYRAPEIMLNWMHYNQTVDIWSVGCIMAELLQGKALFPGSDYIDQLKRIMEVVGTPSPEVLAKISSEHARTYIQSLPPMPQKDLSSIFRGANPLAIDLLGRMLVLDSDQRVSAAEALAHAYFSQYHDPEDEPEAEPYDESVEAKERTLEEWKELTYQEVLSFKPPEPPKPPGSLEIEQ
Tyrosine-protein kinase Fyn (Homo sapiens), sequence (P06241 2-537 limits assumed): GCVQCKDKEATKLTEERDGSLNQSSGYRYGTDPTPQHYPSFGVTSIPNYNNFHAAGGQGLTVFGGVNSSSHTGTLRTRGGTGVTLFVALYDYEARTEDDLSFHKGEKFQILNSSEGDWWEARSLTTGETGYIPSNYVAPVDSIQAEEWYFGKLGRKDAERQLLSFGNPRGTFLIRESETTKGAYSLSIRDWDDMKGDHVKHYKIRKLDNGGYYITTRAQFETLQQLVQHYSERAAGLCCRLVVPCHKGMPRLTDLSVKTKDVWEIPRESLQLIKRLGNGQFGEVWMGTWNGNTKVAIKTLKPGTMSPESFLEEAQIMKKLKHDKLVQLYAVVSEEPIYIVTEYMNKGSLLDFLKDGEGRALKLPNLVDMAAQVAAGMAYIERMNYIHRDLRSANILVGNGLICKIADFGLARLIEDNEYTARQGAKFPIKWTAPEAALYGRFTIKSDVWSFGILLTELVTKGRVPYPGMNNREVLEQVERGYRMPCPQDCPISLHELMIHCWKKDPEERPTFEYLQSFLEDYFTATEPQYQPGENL
Serine/threonine-protein kinase 24 (Homo sapiens), sequence (Q9Y6E0 whole entry, looked up): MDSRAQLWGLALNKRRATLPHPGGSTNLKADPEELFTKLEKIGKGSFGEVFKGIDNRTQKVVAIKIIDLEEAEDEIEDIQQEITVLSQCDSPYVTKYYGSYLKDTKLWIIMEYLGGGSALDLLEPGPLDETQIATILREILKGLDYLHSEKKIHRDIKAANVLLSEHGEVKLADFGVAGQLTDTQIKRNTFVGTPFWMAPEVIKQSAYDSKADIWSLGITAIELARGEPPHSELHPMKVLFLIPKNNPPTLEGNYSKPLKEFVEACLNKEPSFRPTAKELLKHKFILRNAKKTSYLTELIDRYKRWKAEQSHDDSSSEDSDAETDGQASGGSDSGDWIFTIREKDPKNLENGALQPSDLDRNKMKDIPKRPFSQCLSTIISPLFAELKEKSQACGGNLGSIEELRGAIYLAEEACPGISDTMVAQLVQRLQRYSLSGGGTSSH
PAS domain-containing serine/threonine-protein kinase (Homo sapiens), sequence (Q96RG2 whole entry, the tested form may be a part): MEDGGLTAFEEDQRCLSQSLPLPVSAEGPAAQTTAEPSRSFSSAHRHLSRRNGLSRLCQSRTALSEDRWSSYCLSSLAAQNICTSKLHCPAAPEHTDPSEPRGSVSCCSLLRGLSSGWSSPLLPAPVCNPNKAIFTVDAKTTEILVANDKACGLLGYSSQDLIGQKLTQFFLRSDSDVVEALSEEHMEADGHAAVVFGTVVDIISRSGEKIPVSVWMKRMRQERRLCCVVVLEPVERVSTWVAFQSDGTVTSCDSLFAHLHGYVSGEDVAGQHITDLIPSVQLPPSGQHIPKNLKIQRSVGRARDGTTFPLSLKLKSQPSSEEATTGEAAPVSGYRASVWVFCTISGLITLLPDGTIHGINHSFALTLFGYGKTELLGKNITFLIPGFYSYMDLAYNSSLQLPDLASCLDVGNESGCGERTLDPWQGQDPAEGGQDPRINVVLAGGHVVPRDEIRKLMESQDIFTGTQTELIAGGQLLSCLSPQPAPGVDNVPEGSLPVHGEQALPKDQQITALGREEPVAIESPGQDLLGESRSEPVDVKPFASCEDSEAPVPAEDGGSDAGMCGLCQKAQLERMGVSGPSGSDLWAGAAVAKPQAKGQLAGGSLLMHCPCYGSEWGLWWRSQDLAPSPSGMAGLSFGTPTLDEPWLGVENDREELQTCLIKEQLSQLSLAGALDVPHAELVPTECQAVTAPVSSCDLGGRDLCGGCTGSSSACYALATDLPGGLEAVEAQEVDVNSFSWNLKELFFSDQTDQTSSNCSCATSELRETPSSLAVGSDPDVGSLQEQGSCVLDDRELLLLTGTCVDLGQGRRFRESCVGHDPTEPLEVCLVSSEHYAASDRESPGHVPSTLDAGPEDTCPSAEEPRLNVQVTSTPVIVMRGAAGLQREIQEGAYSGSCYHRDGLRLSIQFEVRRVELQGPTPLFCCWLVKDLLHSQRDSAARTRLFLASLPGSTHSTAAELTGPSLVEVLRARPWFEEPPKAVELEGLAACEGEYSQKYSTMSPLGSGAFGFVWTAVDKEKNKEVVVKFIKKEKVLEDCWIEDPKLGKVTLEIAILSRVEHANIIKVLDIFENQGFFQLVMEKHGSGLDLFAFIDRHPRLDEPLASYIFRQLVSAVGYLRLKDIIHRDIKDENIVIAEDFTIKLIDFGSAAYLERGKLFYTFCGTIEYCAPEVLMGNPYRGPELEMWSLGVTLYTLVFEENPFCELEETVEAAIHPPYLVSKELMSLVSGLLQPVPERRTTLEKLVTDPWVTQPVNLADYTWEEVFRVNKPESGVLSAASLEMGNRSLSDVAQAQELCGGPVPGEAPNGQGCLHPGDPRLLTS
Protein kinase C beta type (Homo sapiens), sequence (P05771 2-671 limits assumed): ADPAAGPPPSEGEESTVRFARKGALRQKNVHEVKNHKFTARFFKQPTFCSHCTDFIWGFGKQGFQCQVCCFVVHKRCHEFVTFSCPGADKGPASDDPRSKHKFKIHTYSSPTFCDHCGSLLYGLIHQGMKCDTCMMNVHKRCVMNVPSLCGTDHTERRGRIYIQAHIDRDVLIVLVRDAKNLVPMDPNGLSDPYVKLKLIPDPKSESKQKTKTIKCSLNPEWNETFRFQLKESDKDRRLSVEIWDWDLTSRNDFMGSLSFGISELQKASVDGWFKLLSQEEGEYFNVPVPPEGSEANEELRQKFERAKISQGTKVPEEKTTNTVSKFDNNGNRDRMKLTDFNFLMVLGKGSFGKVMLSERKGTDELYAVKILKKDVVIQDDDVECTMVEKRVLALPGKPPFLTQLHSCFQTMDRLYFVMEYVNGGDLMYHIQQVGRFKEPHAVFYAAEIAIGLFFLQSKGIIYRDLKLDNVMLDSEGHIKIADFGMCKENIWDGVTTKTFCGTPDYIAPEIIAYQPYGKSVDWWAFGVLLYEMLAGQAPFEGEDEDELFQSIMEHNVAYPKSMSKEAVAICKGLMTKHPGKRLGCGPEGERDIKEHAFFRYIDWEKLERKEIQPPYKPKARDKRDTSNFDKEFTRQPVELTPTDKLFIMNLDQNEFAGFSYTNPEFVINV

residual activity [1] [%] | residual activity [2] [%] | residual activity [3] [%] | residual activity [4] [%] | residual activity [5] [%] | residual activity [6] [%] | residual activity [7] [%] | residual activity [8] [%] | residual activity [9] [%] | residual activity [10] [%] | residual activity [11] [%] | SMILES
94 | 85 | 104 | 199 | 4 | 98 | 70 | 94 | 111 | 59 | 88 | COc1cc2c(Oc3ccc(-c4nc5ccccc5s4)cc3)ncnc2cc1OCCCN1CCCC1
83 | 93 | 105 | 79 | 1 | 104 | 10 | 91 | 132 | 73 | 111 | COc1cc2c(Oc3ccc(-c4nc5ccccc5s4)cc3F)ncnc2cc1OCCCN1CCN(C)CC1
88 | 89 | 90 | 169 | 2 | 103 | 56 | 101 | 104 | 57 | 101 | COc1cc2c(Oc3ccc(-c4nc5ccccc5s4)cc3)ncnc2cc1OCCCN1CCN(C)CC1

— ChEMBL document CHEMBL1152560, “Substituted 2-arylbenzothiazoles as kinase inhibitors: hit-to-lead optimization” (Bioorg Med Chem, 2009)
